Data taken from the OligoGym collection.
HELM strings list units from the 5' end as sugar, base in round brackets, then linkage (d deoxyribose, r ribose, m 2'-O-methyl, p phosphodiester). Strings are as the collection lists them; they lack the last nucleoside at the 3' end of the tested compound. [moe] = 2'-O-(2-methoxyethyl) (MOE); [sp] = phosphorothioate linkage; [m5C] = 5-methylcytosine

Target: UBE3A-ATS
Assay: mouse, dose not given
Settings: ASO

Substance	3 h FOB score [score 0-7]
RNA1{[moe](T)[sp].[moe](G)p.[moe](G)p.[moe]([m5C])p.[moe](T)p.d(T)[sp].d(T)[sp].d(A)[sp].d(T)[sp].d(A)[sp].d([m5C])[sp].d(T)[sp].d(T)[sp].d(T)[sp].d(A)[sp].[moe]([m5C])p.[moe]([m5C])p.[moe]([m5C])[sp].[moe](A)}$$$$ (last 3' nucleoside missing)	0.7
RNA1{[moe](T)[sp].[moe](G)p.[moe](T)p.[moe](A)p.[moe](T)p.d([m5C])[sp].d(A)[sp].d(G)[sp].d(G)[sp].d([m5C])[sp].d(A)[sp].d(A)[sp].d([m5C])[sp].d(A)[sp].d(G)[sp].[moe](A)p.[moe](A)p.[moe](T)[sp].[moe]([m5C])}$$$$ (last 3' nucleoside missing)	4.7
RNA1{[moe](T)[sp].[moe](G)p.[moe](T)p.[moe](A)p.[moe]([m5C])p.d(A)[sp].d(A)[sp].d(A)[sp].d([m5C])[sp].d(G)[sp].d(G)[sp].d(G)[sp].d([m5C])[sp].d(T)[sp].d(A)[sp].[moe](T)p.[moe](G)p.[moe](T)[sp].[moe](G)}$$$$ (last 3' nucleoside missing)	7
RNA1{[moe](T)[sp].[moe](G)p.[moe](T)p.[moe](G)[sp].d([m5C])[sp].d(A)[sp].d(T)[sp].d(A)[sp].d([m5C])[sp].d([m5C])[sp].d([m5C])[sp].d(A)[sp].[moe](G)p.[moe](G)p.[moe](G)p.[moe](T)[sp].[moe](A)}$$$$ (last 3' nucleoside missing)	1
RNA1{[moe](T)[sp].[moe](G)p.[moe](T)p.[moe](G)p.[moe](A)p.d(G)[sp].d(A)[sp].d(T)[sp].d(A)[sp].d(A)[sp].d(T)[sp].d(T)[sp].d([m5C])[sp].d(A)[sp].d(G)[sp].[moe](G)p.[moe](A)p.[moe](G)[sp].[moe](G)}$$$$ (last 3' nucleoside missing)	5
RNA1{[moe](T)[sp].[moe](G)p.[moe](T)p.[moe](G)p.[moe](G)p.d(G)[sp].d([m5C])[sp].d([m5C])[sp].d(T)[sp].d([m5C])[sp].d(T)[sp].d(A)[sp].d(T)[sp].d(T)[sp].d(A)[sp].[moe](A)p.[moe](G)p.[moe](A)[sp].[moe](T)}$$$$ (last 3' nucleoside missing)	1
RNA1{[moe](T)[sp].[moe](G)p.[moe](T)p.[moe](G)p.[moe](T)p.[moe](G)p.d(T)[sp].d(T)[sp].d(T)[sp].d(T)[sp].d(T)[sp].d([m5C])[sp].d([m5C])[sp].d(A)[sp].d(T)[sp].d(T)[sp].[moe](T)p.[moe](T)[sp].[moe](T)}$$$$ (last 3' nucleoside missing)	0
RNA1{[moe](T)[sp].[moe](G)p.[moe](T)p.[moe](G)p.[moe](T)p.[moe](T)p.d(T)[sp].d(T)[sp].d(T)[sp].d([m5C])[sp].d([m5C])[sp].d(A)[sp].d(T)[sp].d(T)[sp].d(T)[sp].d(T)[sp].[moe](T)p.[moe]([m5C])[sp].[moe](T)}$$$$ (last 3' nucleoside missing)	0
RNA1{[moe](T)[sp].[moe](G)p.[moe](T)p.[moe](G)p.[moe](T)p.d(G)[sp].d(T)[sp].d(T)[sp].d(T)[sp].d(T)[sp].d(T)[sp].d([m5C])[sp].d([m5C])[sp].d(A)[sp].d(T)[sp].[moe](T)p.[moe](T)p.[moe](T)[sp].[moe](T)}$$$$ (last 3' nucleoside missing)	0
RNA1{[moe](T)[sp].[moe](G)p.[moe](T)p.[moe](G)p.[moe](T)p.d(T)[sp].d(T)[sp].d(T)[sp].d(T)[sp].d([m5C])[sp].d([m5C])[sp].d(A)[sp].d(T)[sp].d(T)[sp].d(T)[sp].[moe](T)p.[moe](T)p.[moe]([m5C])[sp].[moe](T)}$$$$ (last 3' nucleoside missing)	0
RNA1{[moe](T)[sp].[moe](G)p.[moe](T)p.[moe](G)p.[moe]([m5C])[sp].d(A)[sp].d(T)[sp].d(A)[sp].d([m5C])[sp].d([m5C])[sp].d([m5C])[sp].d(A)[sp].d(G)[sp].[moe](G)p.[moe](G)p.[moe](T)[sp].[moe](A)}$$$$ (last 3' nucleoside missing)	1
RNA1{[moe](T)[sp].[moe](G)p.[moe](T)p.[moe](G)p.[moe]([m5C])p.[moe](A)[sp].d(T)[sp].d(A)[sp].d([m5C])[sp].d([m5C])[sp].d([m5C])[sp].d(A)[sp].d(G)[sp].d(G)[sp].[moe](G)p.[moe](T)[sp].[moe](A)}$$$$ (last 3' nucleoside missing)	1
RNA1{[moe](T)[sp].[moe](G)p.[moe](T)p.[moe](G)p.[moe]([m5C])p.[moe](A)p.d(T)[sp].d(A)[sp].d([m5C])[sp].d([m5C])[sp].d([m5C])[sp].d(A)[sp].d(G)[sp].d(G)[sp].d(G)[sp].d(T)[sp].[moe](A)p.[moe](G)[sp].[moe](G)}$$$$ (last 3' nucleoside missing)	0
RNA1{[moe](T)[sp].[moe](G)p.[moe](T)p.[moe](G)p.[moe]([m5C])p.d(A)[sp].d(T)[sp].d(A)[sp].d([m5C])[sp].d([m5C])[sp].d([m5C])[sp].d(A)[sp].d(G)[sp].d(G)[sp].d(G)[sp].[moe](T)p.[moe](A)p.[moe](G)[sp].[moe](G)}$$$$ (last 3' nucleoside missing)	3
RNA1{[moe](T)[sp].[moe](G)p.[moe](T)p.[moe](G)p.d(T)[sp].d(G)[sp].d(T)[sp].d(T)[sp].d(T)[sp].d(T)[sp].d(T)[sp].d([m5C])[sp].d([m5C])[sp].d(A)[sp].[moe](T)p.[moe](T)p.[moe](T)p.[moe](T)[sp].[moe](T)}$$$$ (last 3' nucleoside missing)	1
RNA1{[moe](T)[sp].[moe](G)p.[moe](T)p.[moe](G)p.d(T)[sp].d(T)[sp].d(T)[sp].d(T)[sp].d(T)[sp].d([m5C])[sp].d([m5C])[sp].d(A)[sp].d(T)[sp].d(T)[sp].[moe](T)p.[moe](T)p.[moe](T)p.[moe]([m5C])[sp].[moe](T)}$$$$ (last 3' nucleoside missing)	1
RNA1{[moe](T)[sp].[moe](G)p.[moe](T)p.[moe](G)p.d([m5C])[sp].d(A)[sp].d(T)[sp].d(A)[sp].d([m5C])[sp].d([m5C])[sp].d([m5C])[sp].d(A)[sp].d(G)[sp].d(G)[sp].[moe](G)p.[moe](T)p.[moe](A)p.[moe](G)[sp].[moe](G)}$$$$ (last 3' nucleoside missing)	1
RNA1{[moe](T)[sp].[moe](G)p.[moe](T)p.[moe](T)p.[moe](G)p.d(T)[sp].d(A)[sp].d(T)[sp].d(G)[sp].d([m5C])[sp].d(A)[sp].d(G)[sp].d(G)[sp].d(T)[sp].d(T)[sp].[moe]([m5C])p.[moe](A)p.[moe](T)[sp].[moe]([m5C])}$$$$ (last 3' nucleoside missing)	4.5
RNA1{[moe](T)[sp].[moe](G)p.[moe](T)p.[moe]([m5C])p.[moe](G)p.d(A)[sp].d(G)[sp].d(A)[sp].d(A)[sp].d([m5C])[sp].d(T)[sp].d([m5C])[sp].d(A)[sp].d(A)[sp].d(A)[sp].[moe](A)p.[moe](G)p.[moe](G)[sp].[moe](T)}$$$$ (last 3' nucleoside missing)	4.5
RNA1{[moe](T)[sp].[moe](G)p.[moe](T)p.[moe]([m5C])p.[moe](T)p.d([m5C])[sp].d(T)[sp].d(A)[sp].d(A)[sp].d(T)[sp].d([m5C])[sp].d([m5C])[sp].d(T)[sp].d(A)[sp].d(T)[sp].[moe](T)p.[moe]([m5C])p.[moe]([m5C])[sp].[moe](A)}$$$$ (last 3' nucleoside missing)	0
RNA1{[moe](T)[sp].[moe](G)p.[moe]([m5C])p.[moe](A)[sp].d(T)[sp].d(A)[sp].d([m5C])[sp].d([m5C])[sp].d([m5C])[sp].d(A)[sp].d(G)[sp].d(G)[sp].[moe](G)p.[moe](T)p.[moe](A)p.[moe](G)[sp].[moe](G)}$$$$ (last 3' nucleoside missing)	0
RNA1{[moe](T)[sp].[moe](G)p.[moe]([m5C])p.[moe](A)p.[moe](T)[sp].d(A)[sp].d([m5C])[sp].d([m5C])[sp].d([m5C])[sp].d(A)[sp].d(G)[sp].d(G)[sp].d(G)[sp].[moe](T)p.[moe](A)p.[moe](G)[sp].[moe](G)}$$$$ (last 3' nucleoside missing)	1
RNA1{[moe](T)[sp].[moe](G)p.[moe]([m5C])p.[moe](A)p.[moe](T)p.[moe](A)[sp].d([m5C])[sp].d([m5C])[sp].d([m5C])[sp].d(A)[sp].d(G)[sp].d(G)[sp].d(G)[sp].d(T)[sp].[moe](A)p.[moe](G)[sp].[moe](G)}$$$$ (last 3' nucleoside missing)	2
RNA1{[moe](T)[sp].[moe](G)p.[moe]([m5C])p.[moe](A)p.[moe](T)p.[moe](A)p.d([m5C])[sp].d([m5C])[sp].d([m5C])[sp].d(A)[sp].d(G)[sp].d(G)[sp].d(G)[sp].d(T)[sp].d(A)[sp].d(G)[sp].[moe](G)p.[moe](A)[sp].[moe](T)}$$$$ (last 3' nucleoside missing)	4
RNA1{[moe](T)[sp].[moe](G)p.[moe]([m5C])p.[moe](A)p.[moe](T)p.d(A)[sp].d(A)[sp].d(A)[sp].d(G)[sp].d([m5C])[sp].d([m5C])[sp].d(A)[sp].d(G)[sp].d(G)[sp].d([m5C])[sp].[moe]([m5C])p.[moe](A)p.[moe](G)[sp].[moe](G)}$$$$ (last 3' nucleoside missing)	2.2
RNA1{[moe](T)[sp].[moe](G)p.[moe]([m5C])p.[moe](A)p.[moe](T)p.d(A)[sp].d([m5C])[sp].d([m5C])[sp].d([m5C])[sp].d(A)[sp].d(G)[sp].d(G)[sp].d(G)[sp].d(T)[sp].d(A)[sp].[moe](G)p.[moe](G)p.[moe](A)[sp].[moe](T)}$$$$ (last 3' nucleoside missing)	2
RNA1{[moe](T)[sp].[moe](G)p.[moe]([m5C])p.[moe](A)p.[moe](T)p.d(G)[sp].d(T)[sp].d(G)[sp].d(G)[sp].d(G)[sp].d([m5C])[sp].d([m5C])[sp].d(T)[sp].d([m5C])[sp].d(T)[sp].[moe](A)p.[moe](T)p.[moe](T)[sp].[moe](A)}$$$$ (last 3' nucleoside missing)	4
